In ChEMBL document CHEMBL3875156, “Design, synthesis and preliminary evaluation of dopamine-amino acid conjugates as potential D1 dopaminergic modulators” (Eur J Med Chem, 2016):

Columns and labels:
[1] = n-octanol-phosphate buffer apparent distribution coefficient, log D of the compound at pH 7.4 by shake flask method; type: physicochemical
[2] = Half life in Sprague-Dawley rat brain homogenate at 2.075 mg/mL; type: ADME, tissue-based
[3] = Half life in human plasma at 2.05 mg/mL; type: ADME, cell-free

| SMILES | logD [1] | half-life [2] [h] | half-life [3] [h] |
| --- | --- | --- | --- |
| N[C@@H](Cc1c[nH]c2ccccc12)C(=O)NCCc1ccc(O)c(O)c1 | 0.5 | 1.33 | 2 |
| CC(C)C[C@H](N)C(=O)NCCc1ccc(O)c(O)c1 | 0.18 | 3.22 | 0.767 |
